Data reported in the CheMixHub viscosity set.
± gives the uncertainty stated by the source.

Assay: xn = mol fraction of the nth substance listed

CCCCCOC(C)=O + CCOc1ccccc1
Conditions	viscosity [mPa·s]
298.15 K, 101 kPa, x2 = 0.5	0.855 ± 0.0085

Cc1ccccc1O + CC12CCC(CC1)C(C)(C)O2
viscosity [mPa·s], 101 kPa
Conditions	x2 = 0.0644	x2 = 0.1341	x2 = 0.2098	x2 = 0.2923	x2 = 0.3825	x2 = 0.4817	x2 = 0.5911	x2 = 0.7125	x2 = 0.8479
303.15 K	6.716 ± 0.18	7.057 ± 0.19	7.387 ± 0.2	7.431 ± 0.2	7.201 ± 0.19	6.63 ± 0.18	5.917 ± 0.16	4.949 ± 0.14	3.732 ± 0.11
308.15 K	5.48 ± 0.16	5.76 ± 0.16	5.997 ± 0.17	6.081 ± 0.17	5.929 ± 0.17	5.628 ± 0.16	5.058 ± 0.15	4.201 ± 0.12	3.201 ± 0.096
313.15 K	4.569 ± 0.13	4.81 ± 0.14	4.944 ± 0.14	5.041 ± 0.15	5.032 ± 0.15	4.696 ± 0.14	4.12 ± 0.12	3.359 ± 0.1	2.48 ± 0.077

C=CC(=O)OC + CCCCCCCCCC
viscosity [mPa·s], 100 kPa
Conditions	x1 = 0.1092	x1 = 0.2047	x1 = 0.3019	x1 = 0.4034	x1 = 0.5015	x1 = 0.5969	x1 = 0.6987	x1 = 0.7998	x1 = 0.8966
303.15 K	0.733 ± 0.073	0.683 ± 0.068	0.638 ± 0.064	0.595 ± 0.06	0.561 ± 0.056	0.532 ± 0.053	0.506 ± 0.051	0.483 ± 0.048	0.462 ± 0.046
308.15 K	0.668 ± 0.067	0.625 ± 0.063	0.585 ± 0.059	0.548 ± 0.055	0.519 ± 0.052	0.495 ± 0.05	0.474 ± 0.048	0.456 ± 0.046	0.437 ± 0.044
313.15 K	0.644 ± 0.065	0.604 ± 0.061	0.566 ± 0.057	0.53 ± 0.053	0.501 ± 0.05	0.478 ± 0.048	0.457 ± 0.046	0.438 ± 0.044	0.42 ± 0.042

Cc1ccccc1O + CCCC(=O)O
viscosity [mPa·s], 101 kPa
Conditions	x2 = 0.1104	x2 = 0.2183	x2 = 0.3237	x2 = 0.4268	x2 = 0.5276	x2 = 0.6262	x2 = 0.7227	x2 = 0.8171	x2 = 0.9095
298.15 K	6.565 ± 0.53	5.731 ± 0.48	4.976 ± 0.43	4.317 ± 0.38	3.725 ± 0.33	3.167 ± 0.28	2.698 ± 0.24	2.265 ± 0.21	1.862 ± 0.17
308.15 K	4.973 ± 0.43	4.431 ± 0.39	3.973 ± 0.35	3.534 ± 0.31	3.113 ± 0.28	2.687 ± 0.24	2.294 ± 0.21	1.936 ± 0.18	1.575 ± 0.15
318.15 K	3.375 ± 0.3	3.191 ± 0.28	2.968 ± 0.27	2.723 ± 0.25	2.463 ± 0.22	2.194 ± 0.2	1.914 ± 0.18	1.62 ± 0.15	1.307 ± 0.13

Cc1ccccc1O + CCC(=O)O
viscosity [mPa·s], 101 kPa
Conditions	x2 = 0.1315	x2 = 0.2542	x2 = 0.3688	x2 = 0.4761	x2 = 0.5768	x2 = 0.6716	x2 = 0.7608	x2 = 0.845	x2 = 0.9246
298.15 K	6.126 ± 0.5	4.978 ± 0.43	4.056 ± 0.36	3.325 ± 0.3	2.73 ± 0.25	2.216 ± 0.2	1.816 ± 0.17	1.505 ± 0.14	1.253 ± 0.12
308.15 K	4.701 ± 0.41	3.949 ± 0.35	3.325 ± 0.3	2.79 ± 0.25	2.329 ± 0.21	1.93 ± 0.18	1.606 ± 0.15	1.33 ± 0.13	1.1 ± 0.11
318.15 K	3.245 ± 0.29	2.875 ± 0.26	2.527 ± 0.23	2.198 ± 0.2	1.885 ± 0.17	1.6 ± 0.15	1.333 ± 0.13	1.126 ± 0.11	0.9354 ± 0.093

CCOC(=O)CC + ClC(Cl)C(Cl)Cl
viscosity [mPa·s], 101.3 kPa
Conditions	308.15 K	318.15 K
x1 = 0.0486	1.333 ± 0.082	1.203 ± 0.075
x1 = 0.0999	1.261 ± 0.078	1.128 ± 0.071
x1 = 0.2025	1.127 ± 0.071	0.996 ± 0.063
x1 = 0.2997	1.013 ± 0.064	0.888 ± 0.057
x1 = 0.3983	0.922 ± 0.059	0.794 ± 0.052
x1 = 0.5003	0.817 ± 0.054	0.71 ± 0.048
x1 = 0.5986	0.714 ± 0.048	0.64 ± 0.044
x1 = 0.7023	0.617 ± 0.042	0.576 ± 0.04
x1 = 0.801	0.583 ± 0.041	0.523 ± 0.037
x1 = 0.9018	0.521 ± 0.037	0.476 ± 0.035
x1 = 0.951	0.493 ± 0.036	0.455 ± 0.033
